Marks after values point to notes of the source that are not given here.
Tested on: upper airways
Experiment: Animal model of obstructive sleep apnoea in the pig (collapsibility of the upper airways under negative pressure)
Format: in vivo, German Landrace pigs
Source text: The effects of the formulations according to the invention of the inhibitors of TASK-1 and/or TASK-3 channels on the activation threshold of the genioglossus muscle by negative pressure and the collapsibility of the upper airways were investigated in a pig model for obstructive sleep apnoea. Using negative pressure, it is possible to induce collapse and thus obstruction of the upper airways in anaesthetized, spontaneously breathing pigs [Wirth et al., Sleep 36, 699-708 (2013)]. German Landrace pigs were used for the model. Since the nasal axis is in an almost vertical position in humans in a horizontal sleeping position, the pigs in the experiments were fixed in a sitting position (70 degrees), wherein the nose pointed upwards. After nasal administration, the formulation therefore flowed downwards over all regions of the upper airways. The pigs were anaesthetized and tracheotomized. One cannula each was inserted into the rostral and the caudal part of the trachea. Using a T connector, the rostral cannula was connected on the one hand to a device generating negative pressure and on the other hand to the caudal cannula. Using a T connector, the caudal cannula was connected to the rostral cannula and to a tube which allowed spontaneous breathing circumventing the upper airways. By appropriate closing and opening of the tubes it was thus possible for the pig to change from normal nasal breathing to breathing via the caudal cannula during the time when the upper airways were isolated and were connected to the device for generating negative pressure. The muscle activity of the Musculus genioglossus was recorded by electromyogram (EMG). At certain points in time, the collapsibility of the upper airways was tested by having the pig breathe via the caudal cannula and applying negative pressures of −50, −100 and −150 mbar (corresponding to −50, −100 and −150 cm water column (cm H2O)) to the upper airways. This caused the upper airways to collapse, which manifested itself in an interruption of the airflow and a pressure drop in the tube system. This test was conducted prior to administration of the test substance and at certain intervals after administration of the test substance. An appropriately effective test substance could prevent this collapse of the airways in the inspiratory phase. After changeover from nasal breathing to breathing via the caudal cannula, it was not possible to measure any EMG activity of the Musculus genioglossus in the anaesthetized pig. As a further test, the negative pressure at which EMG activity restarted was then determined. This threshold value was, if a test substance was effective, shifted to more positive values. The test was likewise conducted prior to the administration of the test substance and at certain intervals after the administration of the test substance. The test substance was administered by the nasal route. The results shown in the tables which follow were conducted with the compounds listed in Table 1 as Example 1, Example 3 and Example 4. Unless stated otherwise, the data were measured at a negative pressure of −100 mbar (corresponding to −100 cm water column (cm H2O)) on the upper airways. The active ingredients listed in Table 1 as Example 1, Example 3 and Example 4 were dissolved in the various formulations listed in Table 2 below and administered in an amount of 0 μg, 3 μg, 10 μg, 30 μg or 100 μg per pig. The active ingredient formulation or the pure vehicle was each administered with a pipette at a volume of 400 μl in each nostril. The duration of action in this pig model is defined as the time [min] in which a collapse of the upper airways was not observed in any animal, as a mean value of the specified number of animals. A duration of action specified as “>” X min signifies that the experiment was terminated at X min and up to this point a collapse of the upper airways was still not observed in any animal.

COc1cccc(C(=O)N2CCN(Cc3c(-c4ccc(Cl)cc4)nc4ccccn34)CC2)n1 [Example 3, (4-{[2-(4-chlorophenyl)imidazo[1,2-a]pyridin-3-yl]methyl}piperazin-1-yl)(6-methoxypyridin-2-yl)methanone]
Duration of action [min], mean value (Formulation 1 (no glycerol), 30 μg per pig nasal, -100 mbar): 180* min
Duration of action [min], mean value (Formulation 1 (phosphate buffer pH 7/polysorbate 80, no glycerol), 3 μg per pig nasal, -100 mbar): 150 min
Duration of action [min], mean value (Formulation 2 (5% w/v glycerol 85%, 4.25 absolute), 3 μg per pig nasal, -100 mbar): 210 min
Duration of action [min], mean value (Formulation 3 (2.5% w/v glycerol 85%, 2.125 absolute), 3 μg per pig nasal, -100 mbar): 240 min
Duration of action [min], mean value (Formulation 3 (2.5% w/v glycerol 85%, 2.125 absolute), 30 μg per pig nasal, -100 mbar): 390 min
Duration of action [min], mean value (Formulation 4 (1% w/v glycerol 85%, 0.85 absolute), 3 μg per pig nasal, -100 mbar): 150 min
Duration of action [min], mean value (Formulation 5 (2.5% w/v glycerol 85% + 20% w/v PEG400), 3 μg per pig nasal, -100 mbar): 240 min
Duration of action [min], mean value (Formulation 6 (20% w/v propylene glycol, no glycerol), 30 μg per pig nasal, -100 mbar): 180 min
Duration of action [min], mean value (Formulation 7 (1.25% w/v Na-CMC, no glycerol), 3 μg per pig nasal, -100 mbar): 120 min

O=C(C1CCCC1)N1CCN(Cc2c(-c3ccc(Br)cc3)nc3ccccn23)CC1 [Example 1, (4-{[2-(4-bromophenyl)imidazo[1,2-a]pyridin-3-yl]methyl}piperazin-1-yl)(cyclopentyl)methanone]
Duration of action [min], mean value (Formulation 1 (no glycerol), 10 μg per pig nasal, -50 mbar): 150 min
Duration of action [min], mean value (Formulation 1 (no glycerol), 10 μg per pig nasal, -100 mbar): 120 min
Duration of action [min], mean value (Formulation 3 (glycerol 2.5% w/v), 10 μg per pig nasal, -50 mbar): >270 min
Duration of action [min], mean value (Formulation 3 (glycerol 2.5% w/v), 10 μg per pig nasal, -100 mbar): 240 min

O=C(c1ccccc1F)N1CCN(Cc2c(-c3ccc(Br)cc3)nc3ccccn23)CC1 [Example 4, (4-{[2-(4-bromophenyl)imidazo[1,2-a]pyridin-3-yl]methyl}piperazin-1-yl)(2-fluorophenyl)methanone]
Duration of action [min], mean value (Formulation 1 (no glycerol), 100 μg per pig nasal, -50 mbar): 180 min
Duration of action [min], mean value (Formulation 1 (no glycerol), 100 μg per pig nasal, -100 mbar): 180 min
Duration of action [min], mean value (Formulation 3 (glycerol 2.5% w/v), 100 μg per pig nasal, -50 mbar): >300 min
Duration of action [min], mean value (Formulation 3 (glycerol 2.5% w/v), 100 μg per pig nasal, -100 mbar): 270 min

Source: patent US20200093737A1, “PHARMACEUTICAL DOSAGE FORMS CONTAINING TASK-1 AND TASK-3 CHANNEL INHIBITORS, AND THE USE OF SAME IN BREATHING DISORDER THERAPY” (priority 2016, published 2020)
